Laboratory results as given in the NIST ThermoML archive (doi:10.1016/j.fluid.2012.02.007).
Numbers after ± are expanded uncertainties.

Details: Liquid, Vibrating tube method

CCCCCCO [hexan-1-ol]
mass density (353.15 K, 100 kPa): 773.8 ± 1 kg/m3
mass density (353.15 K, 10000 kPa): 782.3 ± 1 kg/m3
mass density (353.15 K, 20000 kPa): 790.1 ± 1 kg/m3
mass density (353.15 K, 30000 kPa): 797.3 ± 1.1 kg/m3
mass density (353.15 K, 40000 kPa): 803.8 ± 1.1 kg/m3
mass density (353.15 K, 50000 kPa): 810 ± 1.1 kg/m3
mass density (353.15 K, 60000 kPa): 815.6 ± 1.1 kg/m3
mass density (353.15 K, 70000 kPa): 821 ± 1.1 kg/m3
mass density (353.15 K, 80000 kPa): 826.2 ± 1.2 kg/m3
mass density (353.15 K, 90000 kPa): 831.1 ± 1.2 kg/m3
mass density (353.15 K, 100000 kPa): 835.6 ± 1.2 kg/m3
mass density (353.15 K, 110000 kPa): 840 ± 1.2 kg/m3
mass density (353.15 K, 120000 kPa): 844.3 ± 1.2 kg/m3
mass density (353.15 K, 130000 kPa): 848.4 ± 1.3 kg/m3
mass density (353.15 K, 140000 kPa): 852.3 ± 1.3 kg/m3
mass density (363.15 K, 100 kPa): 765.5 ± 1 kg/m3
mass density (363.15 K, 10000 kPa): 774.9 ± 1 kg/m3
mass density (363.15 K, 20000 kPa): 783.1 ± 1 kg/m3
mass density (363.15 K, 30000 kPa): 790.6 ± 1.1 kg/m3
mass density (363.15 K, 40000 kPa): 797.5 ± 1.1 kg/m3
mass density (363.15 K, 50000 kPa): 803.8 ± 1.1 kg/m3
mass density (363.15 K, 60000 kPa): 809.7 ± 1.1 kg/m3
mass density (363.15 K, 70000 kPa): 815.4 ± 1.1 kg/m3
mass density (363.15 K, 80000 kPa): 820.6 ± 1.2 kg/m3
mass density (363.15 K, 90000 kPa): 825.6 ± 1.2 kg/m3
mass density (363.15 K, 100000 kPa): 830.3 ± 1.2 kg/m3
mass density (363.15 K, 110000 kPa): 834.8 ± 1.2 kg/m3
mass density (363.15 K, 120000 kPa): 839.2 ± 1.3 kg/m3
mass density (363.15 K, 130000 kPa): 843.3 ± 1.3 kg/m3
mass density (363.15 K, 140000 kPa): 847.2 ± 1.3 kg/m3
mass density (373.15 K, 100 kPa): 756.9 ± 7.5 kg/m3
mass density (373.15 K, 10000 kPa): 766.6 ± 1 kg/m3
mass density (373.15 K, 20000 kPa): 775.4 ± 1 kg/m3
mass density (373.15 K, 30000 kPa): 783.4 ± 1.1 kg/m3
mass density (373.15 K, 40000 kPa): 790.4 ± 1.1 kg/m3
mass density (373.15 K, 50000 kPa): 796.9 ± 1.1 kg/m3
mass density (373.15 K, 60000 kPa): 803.1 ± 1.1 kg/m3
mass density (373.15 K, 70000 kPa): 808.9 ± 1.2 kg/m3
mass density (373.15 K, 80000 kPa): 814.2 ± 1.2 kg/m3
mass density (373.15 K, 90000 kPa): 819.5 ± 1.2 kg/m3
mass density (373.15 K, 100000 kPa): 824.4 ± 1.2 kg/m3
mass density (373.15 K, 110000 kPa): 829.2 ± 1.3 kg/m3
mass density (373.15 K, 120000 kPa): 833.3 ± 1.3 kg/m3
mass density (373.15 K, 130000 kPa): 837.7 ± 1.3 kg/m3
mass density (373.15 K, 140000 kPa): 841.7 ± 1.3 kg/m3
mass density (383.15 K, 100 kPa): 748.2 ± 7.5 kg/m3
mass density (383.15 K, 10000 kPa): 759.1 ± 1 kg/m3
mass density (383.15 K, 20000 kPa): 767.8 ± 1 kg/m3
mass density (383.15 K, 30000 kPa): 776.5 ± 1.1 kg/m3
mass density (383.15 K, 40000 kPa): 783.5 ± 1.1 kg/m3
mass density (383.15 K, 50000 kPa): 790.4 ± 1.1 kg/m3
mass density (383.15 K, 60000 kPa): 796.8 ± 1.1 kg/m3
mass density (383.15 K, 70000 kPa): 802.6 ± 1.2 kg/m3
mass density (383.15 K, 80000 kPa): 808.3 ± 1.2 kg/m3
mass density (383.15 K, 90000 kPa): 813.7 ± 1.2 kg/m3
mass density (383.15 K, 100000 kPa): 818.7 ± 1.2 kg/m3
mass density (383.15 K, 110000 kPa): 823.4 ± 1.3 kg/m3
mass density (383.15 K, 120000 kPa): 828 ± 1.3 kg/m3
mass density (383.15 K, 130000 kPa): 832.3 ± 1.3 kg/m3
mass density (383.15 K, 140000 kPa): 836.5 ± 1.3 kg/m3
mass density (393.15 K, 100 kPa): 739.4 ± 7.2 kg/m3
mass density (393.15 K, 10000 kPa): 750.8 ± 1 kg/m3
mass density (393.15 K, 20000 kPa): 760.5 ± 1 kg/m3
mass density (393.15 K, 30000 kPa): 768.8 ± 1.1 kg/m3
mass density (393.15 K, 40000 kPa): 777 ± 1.1 kg/m3
mass density (393.15 K, 50000 kPa): 783.7 ± 1.1 kg/m3
mass density (393.15 K, 60000 kPa): 790.3 ± 1.1 kg/m3
mass density (393.15 K, 70000 kPa): 796.5 ± 1.2 kg/m3
mass density (393.15 K, 80000 kPa): 802.5 ± 1.2 kg/m3
mass density (393.15 K, 90000 kPa): 807.8 ± 1.2 kg/m3
mass density (393.15 K, 100000 kPa): 813 ± 1.3 kg/m3
mass density (393.15 K, 110000 kPa): 818.1 ± 1.3 kg/m3
mass density (393.15 K, 120000 kPa): 822.6 ± 1.3 kg/m3
mass density (393.15 K, 130000 kPa): 827.2 ± 1.3 kg/m3
mass density (393.15 K, 140000 kPa): 831.5 ± 1.4 kg/m3
mass density (403.15 K, 100 kPa): 730.2 ± 7.2 kg/m3
mass density (403.15 K, 10000 kPa): 741.8 ± 1 kg/m3
mass density (403.15 K, 20000 kPa): 751.9 ± 1 kg/m3
mass density (403.15 K, 30000 kPa): 761.1 ± 1.1 kg/m3
mass density (403.15 K, 40000 kPa): 769.3 ± 1.1 kg/m3
mass density (403.15 K, 50000 kPa): 776.9 ± 1.1 kg/m3
mass density (403.15 K, 60000 kPa): 783.7 ± 1.2 kg/m3
mass density (403.15 K, 70000 kPa): 790.1 ± 1.2 kg/m3
mass density (403.15 K, 80000 kPa): 796.2 ± 1.2 kg/m3
mass density (403.15 K, 90000 kPa): 801.8 ± 1.2 kg/m3
mass density (403.15 K, 100000 kPa): 807.2 ± 1.3 kg/m3
mass density (403.15 K, 110000 kPa): 812.3 ± 1.3 kg/m3
mass density (403.15 K, 120000 kPa): 817.1 ± 1.3 kg/m3
mass density (403.15 K, 130000 kPa): 821.8 ± 1.4 kg/m3
mass density (403.15 K, 140000 kPa): 826.5 ± 1.4 kg/m3
